# Test results published in paper PMC8034821 (The Journal of Venomous Animals and Toxins Including …, 2021).
# Tested on: krait (Bungarus sindanus) venom acetylcholinesterase (AChE)
# Assay: Ellman (DTNB) assay, Lineweaver-Burk plot
# Assay type: biochemical
# Conditions: no inhibitor; 50 mM phosphate pH 7.4; 25 or 37 °C (both printed); crude venom
structure (smiles),measurement,value
CC(=O)SCC[N+](C)(C)C [AcSCh],Km,74.1 µM
